{"source": "paper PMC4246079", "about": "“Structure and Mechanism of the Bifunctional CinA Enzyme from Thermus thermophilus” (The Journal of Biological Chemistry, 2014)", "key": {"[1]": {"target": "T1, TtCinA (Thermus thermophilus, UniProt Q5SHB0)", "T1 construct": "gene TTHA1820; full-length, N-terminal His6 tag with thrombin site (pET28a, thrombin-treated), expressed in E. coli T7 Express; asymmetric homodimer (~72 kDa by SEC, 86 kDa predicted dimer)", "T1 sequence (Q5SHB0 entry or part of it)": "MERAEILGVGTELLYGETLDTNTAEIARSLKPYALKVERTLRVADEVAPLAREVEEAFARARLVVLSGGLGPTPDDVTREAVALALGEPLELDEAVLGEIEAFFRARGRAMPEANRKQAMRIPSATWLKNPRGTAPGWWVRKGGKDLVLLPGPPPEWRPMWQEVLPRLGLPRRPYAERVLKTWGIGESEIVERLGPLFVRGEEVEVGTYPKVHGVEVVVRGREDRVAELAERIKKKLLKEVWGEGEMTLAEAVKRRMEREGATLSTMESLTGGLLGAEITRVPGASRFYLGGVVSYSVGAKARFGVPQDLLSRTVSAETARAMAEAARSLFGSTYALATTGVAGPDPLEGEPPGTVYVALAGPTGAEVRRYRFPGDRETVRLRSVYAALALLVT", "test": "reverse-phase HPLC of conversion to NCN", "type": "biochemical", "settings": "NMN deamidase; 1 mM NMN, 100 μg enzyme per ml, 25 mM Tris-HCl pH 8.0, 100 mM NaCl, 37 °C, 15 min"}, "[2]": {"target": "T1, TtCinA", "test": "X-ray crystal structure ([…] Å; crystal soak); turnover to AMP also seen by HPLC", "type": "binding", "settings": "ADPR site of COG1058 domain, both open and closed sites; 5 mM MgCl2, 25 mM ligand, Mg2+ bound; HPLC assay with 1 mM ADP-ribose, 4 mM CoCl2, 100 mM KCl, pH 8.0, 50 °C"}, "[3]": {"target": "T1, TtCinA", "test": "X-ray crystal structure ([…] Å; crystal soaked with NMN)", "type": "binding", "settings": "NMN deamidase site; built as product NCN by presumption, density could not distinguish NMN from NCN; 5 mM MgCl2, 25 mM NMN soak"}, "[4]": {"target": "T1, TtCinA", "test": "X-ray crystal structure ([…] Å; crystal soak)", "type": "binding", "settings": "ADPR site of COG1058 domain, open site only, weaker density; 5 mM MgCl2, 25 mM ligand (AMP/ribose 5-phosphate), Mg2+ bound"}, "[5]": {"target": "T1, TtCinA", "test": "X-ray crystal structure ([…] Å; crystal soak)", "type": "binding", "settings": "ADPR site of COG1058 domain, both sites; 5 mM MgCl2, 25 mM ligand, Mg2+ bound; no hydrolysis seen"}}}
{"molecule": "NC(=O)c1ccc[n+]([C@@H]2O[C@H](COP(=O)([O-])O)[C@@H](O)[C@H]2O)c1", "note": "[NMN, nicotinamide mononucleotide]", "values": [{"measurement": "reverse-phase HPLC of conversion to NCN", "setting": "[1]", "value": "NMN showed rapid conversion to NCN product in the presence of TtCinA"}]}
{"molecule": "Nc1ncnc2c1ncn2[C@@H]1O[C@H](COP(=O)(O)OP(=O)(O)OC[C@H]2OC(O)[C@H](O)[C@@H]2O)[C@@H](O)[C@H]1O", "note": "(some centres unmarked) [ADP-ribose]", "values": [{"measurement": "X-ray crystal structure (1.99 Å; crystal soak); turnover to AMP also seen by HPL", "setting": "[2]", "value": "ADP-ribose and ATP data sets produced clear difference density in both catalytic sites"}]}
{"molecule": "O=C([O-])c1ccc[n+]([C@@H]2O[C@H](COP(=O)(O)O)[C@@H](O)[C@H]2O)c1", "note": "[NCN, nicotinate mononucleotide]", "values": [{"measurement": "X-ray crystal structure (2.46 Å; crystal soaked with NMN)", "setting": "[3]", "value": "it was not possible to distinguish NMN from the product, NCN"}]}
{"molecule": "Nc1ncnc2c1ncn2[C@@H]1O[C@H](COP(=O)(O)O)[C@@H](O)[C@H]1O", "note": "[AMP]", "values": [{"measurement": "X-ray crystal structure (1.98 Å; crystal soak)", "setting": "[4]", "value": "it was possible to model in an AMP molecule in one of the two active sites"}]}
{"molecule": "Nc1ncnc2c1ncn2[C@@H]1O[C@H](COP(=O)(O)OP(=O)(O)OP(=O)(O)O)[C@@H](O)[C@H]1O", "note": "[ATP]", "values": [{"measurement": "X-ray crystal structure (2.21 Å; crystal soak)", "setting": "[5]", "value": "ATP binds in a very similar conformation to ADP-ribose"}]}
